Measured values: patent US9173838B2, “Reverse micelle compositions for delivery of metal cations comprising a diglyceride and a phytosterol and method of preparation” (MEDESIS PHARMA SA, priority 2004, dated 2015)

How the values were obtained:
[1] = test system: fructose rats (non insulin dependent diabetes model); experiment: Antidiabetic activity on fructose rats; type: in vivo; details: for glycemia D 0: D0 before start of treatment (baseline); for glycemia D3: day 3 of daily treatment; for glycemia D7: day 7 of daily treatment; for glycemia D21: day 21 of daily treatment
From the text: 1—Antidiabetic Activity on Fructose Rats
The model of the fructose rats is a non insulin dependent diabetes (NIDD) similar to the observed human type 2 diabetes.
In this study, the NP 01 product contains reverse micelles based on vanadium, prepared according to example 2. Its therapeutic activity is compared with two reference drugs: Metformin and Rosiglitazone.
At D −21, after the period of stalling, rats are weighed and a blood sampling is made to determine the basal values of the biochemical parameters.
The rats are distributed randomly in groups of 10 rats. The drink water is then replaced by a solution of fructose 10% in distilled water. This solution is provided ad libitum for 21 days. They receive then again normal water for the following 21 days of the treatment.
At D 0, animals are weighed and a blood sampling is carried out.
The treatment then starts for a 21-day duration, with a daily administration: • Control group: 1 ml/kg of normal water per os • NP 01group: 2 ml/kg by the rectal route • Metformin group: 50 mg/kg of Metformin per os. • Rosiglitazone group: 5 mg/kg of Rosiglitazone per os
At D 21, blood sample and end of the treatment.

[2] = test system: adryamycin-induced inflammation/oedema in male Wistar rat leg; experiment: SOD like activity on rats: test with adryamycin (oedema by plethysmography); type: in vivo
Description: 2—<<SOD Like>> Activity on Rats: Test with Adryamycin
The test with adryamycin is a specific test to highlight free anti-radicals activity of a substance. The product contains reverse micelles based on manganese prepared according to example 3.
One hour after injection in the leg of a male Wistar rat of 0.2 ml of a solution of adryamycin, a temporary inflammation appears for approximately 12 hours. A second inflammatory phase begins on the 3rd day and lasts for 5 days. The vascular hyperpermeability and the oedema which results therefrom, with a deterioration of the cells of endothelial membranes, are caused by the release of free radicals. […] The oedema is measured by plethysmography (expressed by % of pow volume).
3 batches of 10 rats are made up: • negative batch controls: olive oil administration (2 ml/kg) by rectal route • positive batch controls: administration of 100 mg/kg of diosmine • batch treated by NP 02 (manufactured according to example 3): 2 ml/kg by rectal route Results (SD Stands for Standard Deviation)—FIG. 3

[3] = Strontium amount in bone and plasma of growing rats (atomic absorption); type: in vivo, Wistar female rats; details: end of 6 weeks treatment
Description: (§1) The animals are Wistar female rats of 200 g (average).
(§2) Homogeneous batches of 10 rats are made up starting from their weight.
(§3) The treatment is administered once per day during 6 weeks.
(§4) Administered batches and products: • control batch (administration of olive oil by rectal route) • SrCl2 batch (SrCl2 and strontium ranelate are known active ingredients for the osseous growth and treatment of osteoporosis). 68.2 mg of metal Sr/kg/day are administered by rectal route. • NP 05 A batch: product prepared according to example 4 of the invention, with 12.5 mg metal Sr/kg/day.
(§5) NP 05 B batch: product prepared according to example 5 of the invention, with 1.21 mg metal Sr/kg/day.
(§6) NP 05 C batch: product prepared according to example 6 of the invention, with 0.12 mg metal Sr/kg/day.
(§7) Parameters analyzed at the end of the treatment: • animals weight • measurement of the diameter of the rats femoral head after euthanasia and sampling (slide caliper under binocular magnifying glass) • Strontium amount in bone (by atomic absorption). • Strontium amount in plasma (by atomic absorption). Results

[4] = test system: growing rats; experiment: Stimulation of the osseous growth on growing rats (femoral diameter); type: in vivo, Wistar female rats; details: once per day during 6 weeks, rectal route
Description: 3—Stimulation of the Osseous Growth on Growing Rats
The objective of this study is the assessment of a stimulation activity of the osseous growth in growing rats.
The product contains reverse micelles based on strontium prepared according to example 4.
as §1, §2, §3, §4, §5, §6, §7

For `CN(C)C(=N)N=C(N)N` [Metformin], the “glycemia D 0” value [1] was 10.64 mmol/L, the “glycemia D3” value [1] was 10.63 mmol/L and the “glycemia D7” value [1] was 9.68 mmol/L. For the same compound, the “glycemia D21” value [1] was 8.91 mmol/L.

For `COc1ccc(-c2cc(=O)c3c(O)cc(O[C@@H]4O[C@H](CO[C@@H]5O[C@@H](C)[C@H](O)[C@@H](O)[C@H]5O)[C@@H](O)[C@H](O)[C@H]4O)cc3o2)cc1O` [Positive control, diosmine], the “free anti-radicals activity (in words)” value [2] was “free anti-radical activity similar to Manganese superoxydismutase”, the “% of pow volume D1” value ([2]; Wistar rats, D1) was 106.7% and the “% of pow volume D2” value ([2]; Wistar rats, D2) was 120.8%. For the same compound, the “% of pow volume D3” value ([2]; Wistar rats, D3) was 152.2%, the “% of pow volume D4” value ([2]; Wistar rats, D4) was 163% and the “% of pow volume D5” value ([2]; Wistar rats, D5) was 177.6%. The “% of pow volume D6” value ([2]; Wistar rats, D6) was 177.5%, the “% of pow volume D7” value ([2]; Wistar rats, D7) was 168.2% and the “% of pow volume D8” value ([2]; Wistar rats, D8) was 163.5%.

In the case of `CN(CCOc1ccc(CC2SC(=O)NC2=O)cc1)c1ccccn1` (stereo not shown) [Rosiglitazone], the “glycemia D 0” value [1] is reported as 10.38 mmol/L, the “glycemia D3” value [1] is reported as 10.47 mmol/L and the “glycemia D7” value [1] is reported as 9.37 mmol/L. For the same compound, the “glycemia D21” value [1] was 9.13 mmol/L.

Compound `[Cl-].[Cl-].[Sr+2]` [SrCl2] has a Sr in bone [3] of 1508.83 µg/g and a Femoral diameter [4] of 3.93 mm.
